Measured values as given in ChEMBL document CHEMBL1201862, “PubChem BioAssay data set” (2004).
Active and inactive are the calls of the source.

How the values were obtained:
[1] = target: T1, Insulin-degrading enzyme (Homo sapiens, UniProt P14735); assay: activators of endogenous IDE in HEK cells, dose response, cell-based, fluorescence polarization (AID 588439); assay type: functional
T1 sequence (P14735 whole entry): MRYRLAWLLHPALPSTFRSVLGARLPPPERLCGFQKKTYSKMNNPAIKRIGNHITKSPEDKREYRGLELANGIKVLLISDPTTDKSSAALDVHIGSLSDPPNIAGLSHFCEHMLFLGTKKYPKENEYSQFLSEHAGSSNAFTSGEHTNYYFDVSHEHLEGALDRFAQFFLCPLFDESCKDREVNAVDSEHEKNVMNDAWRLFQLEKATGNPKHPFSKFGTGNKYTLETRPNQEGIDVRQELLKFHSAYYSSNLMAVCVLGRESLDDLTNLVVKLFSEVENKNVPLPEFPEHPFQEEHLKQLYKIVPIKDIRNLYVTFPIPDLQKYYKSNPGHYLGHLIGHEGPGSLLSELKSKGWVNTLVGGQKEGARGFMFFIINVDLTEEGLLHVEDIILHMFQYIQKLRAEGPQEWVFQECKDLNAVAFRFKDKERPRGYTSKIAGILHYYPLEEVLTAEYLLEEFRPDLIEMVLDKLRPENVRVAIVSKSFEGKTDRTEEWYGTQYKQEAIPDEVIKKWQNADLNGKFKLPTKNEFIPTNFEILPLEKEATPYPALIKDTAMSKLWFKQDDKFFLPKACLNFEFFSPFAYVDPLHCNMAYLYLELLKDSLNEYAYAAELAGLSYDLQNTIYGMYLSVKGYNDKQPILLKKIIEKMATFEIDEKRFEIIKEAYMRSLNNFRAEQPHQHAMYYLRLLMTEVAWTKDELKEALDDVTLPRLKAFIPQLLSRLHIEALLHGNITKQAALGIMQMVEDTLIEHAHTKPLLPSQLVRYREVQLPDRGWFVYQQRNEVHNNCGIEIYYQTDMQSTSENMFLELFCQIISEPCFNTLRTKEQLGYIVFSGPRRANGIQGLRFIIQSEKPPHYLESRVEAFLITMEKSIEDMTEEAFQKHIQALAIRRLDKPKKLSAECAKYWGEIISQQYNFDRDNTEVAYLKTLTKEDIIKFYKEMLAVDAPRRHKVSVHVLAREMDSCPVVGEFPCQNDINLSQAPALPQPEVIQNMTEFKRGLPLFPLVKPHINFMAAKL

[2] = target: T1, Insulin-degrading enzyme; assay: activators of recombinant IDE enzyme, dose response, counter-screen for IDE activator project, biochemical, fluorescence polarization (AID 588681)
[3] = system: HEK293; assay: HEK cell cytotoxicity by LDH release, dose response, cytotoxicity control for IDE activator project, fluorescence, HEK cells (AID 588440); assay type: functional, cell-based; conditions: Homo sapiens;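 also: cytotoxicity by LDH release measuring loss of membrane integrity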
[4] = system: HEK293; assay: optical interference in Abeta FP readout, dose response, artefact control for IDE activator project, biochemical, fluorescence polarization (AID 588442); assay type: functional, cell-based; conditions: Homo sapiens
[5] = target: Beta-2 adrenergic receptor (Homo sapiens, UniProt P07550); assay: beta2AR agonists driving receptor internalization, dose response, cell-based, FAP fluorogen, flow cytometry, cherry pick 1 (AID 588763); assay type: functional
[6] = inhibitors of intracellular T. cruzi replication, confirmation, NIH3T3 host cells, beta-gal luminescence (AID 2044); assay type: functional, cell-based;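 also: intracellular parasites grown in NIH/3T3 mouse fibroblasts as host cells; luminescent beta-galactosidase reporter signal from transgenic T. cruzi replicating inside host cells; inhibitors lower the luminescence signal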
[7] = cytotoxicity toward NIH3T3 fibroblasts, dose response, counter-screen, cell-based, ATP luminescence, mouse fibroblasts (AID 2010); assay type: functional;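 also: cells exposed to compound for about 90 hours before reading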
[8] = target: T2, ORF 73 (Human herpesvirus 8, UniProt O40947); assay: inhibitors of C-LANA binding to LBS DNA, dose response, biochemical, fluorescence polarization, cherry-picked samples (AID 504725); design: species or system Human gammaherpesvirus 8;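 also: fluorescence polarization of a labeled DNA duplex reporting LANA DNA binding; potency is for inhibitors that block LANA binding to the DNA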
T2 sequence (O40947 whole entry): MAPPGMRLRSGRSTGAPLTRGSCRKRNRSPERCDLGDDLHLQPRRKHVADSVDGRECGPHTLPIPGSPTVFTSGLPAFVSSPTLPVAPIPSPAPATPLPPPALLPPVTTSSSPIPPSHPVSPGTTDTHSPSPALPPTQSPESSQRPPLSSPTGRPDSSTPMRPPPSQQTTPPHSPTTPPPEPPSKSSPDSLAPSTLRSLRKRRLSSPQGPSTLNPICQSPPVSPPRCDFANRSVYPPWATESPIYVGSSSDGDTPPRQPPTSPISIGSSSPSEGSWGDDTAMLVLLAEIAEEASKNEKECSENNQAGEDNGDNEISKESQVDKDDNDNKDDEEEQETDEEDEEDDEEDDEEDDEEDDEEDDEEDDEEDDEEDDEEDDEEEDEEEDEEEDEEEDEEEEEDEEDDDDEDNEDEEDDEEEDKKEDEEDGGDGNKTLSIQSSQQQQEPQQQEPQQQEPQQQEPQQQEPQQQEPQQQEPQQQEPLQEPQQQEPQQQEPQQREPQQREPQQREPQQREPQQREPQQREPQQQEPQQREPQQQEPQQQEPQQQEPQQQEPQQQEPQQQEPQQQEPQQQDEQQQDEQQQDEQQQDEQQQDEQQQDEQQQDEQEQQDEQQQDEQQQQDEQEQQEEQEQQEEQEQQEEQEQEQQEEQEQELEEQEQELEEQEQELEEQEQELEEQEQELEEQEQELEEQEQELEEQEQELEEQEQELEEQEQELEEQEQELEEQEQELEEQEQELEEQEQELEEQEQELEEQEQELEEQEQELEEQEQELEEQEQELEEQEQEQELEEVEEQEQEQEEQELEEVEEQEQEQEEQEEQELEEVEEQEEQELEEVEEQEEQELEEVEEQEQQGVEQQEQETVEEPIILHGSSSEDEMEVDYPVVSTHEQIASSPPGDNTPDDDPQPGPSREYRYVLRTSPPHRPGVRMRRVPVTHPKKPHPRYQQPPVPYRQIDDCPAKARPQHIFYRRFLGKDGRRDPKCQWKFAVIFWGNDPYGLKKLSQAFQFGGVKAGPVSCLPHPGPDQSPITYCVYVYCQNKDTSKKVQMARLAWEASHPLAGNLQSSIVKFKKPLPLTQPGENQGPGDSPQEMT

[9] = target: Keap1/Nrf2 (Homo sapiens, UniProt Q14145); assay: Keap1-Nrf2 protein-protein interaction inhibitors, dose response, biochemical, fluorescence polarization, cherry-picked samples (AID 588683)
[10] = target: T3, Zinc finger protein mex-5 (Caenorhabditis elegans, UniProt Q9XUB2); assay: MEX-5/TCR-2 RNA interaction inhibitors, dose response, biochemical, C. elegans, fluorescence polarization (AID 1960)
T3 sequence (Q9XUB2 whole entry): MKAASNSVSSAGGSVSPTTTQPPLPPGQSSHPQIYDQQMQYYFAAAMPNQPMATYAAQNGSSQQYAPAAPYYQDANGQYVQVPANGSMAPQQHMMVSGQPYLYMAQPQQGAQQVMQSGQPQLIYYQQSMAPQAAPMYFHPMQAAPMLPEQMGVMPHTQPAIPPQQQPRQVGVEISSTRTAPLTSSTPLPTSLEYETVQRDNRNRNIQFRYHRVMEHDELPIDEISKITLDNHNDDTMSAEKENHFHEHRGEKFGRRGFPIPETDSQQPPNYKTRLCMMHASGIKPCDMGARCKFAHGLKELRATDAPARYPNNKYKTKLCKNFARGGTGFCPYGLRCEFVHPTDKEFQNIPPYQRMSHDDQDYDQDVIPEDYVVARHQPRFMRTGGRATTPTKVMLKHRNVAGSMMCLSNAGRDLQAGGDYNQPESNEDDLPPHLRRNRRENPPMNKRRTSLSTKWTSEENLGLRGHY

[11] = target: UDP-galactopyranose mutase (Mycobacterium tuberculosis, UniProt P9WIQ1); assay: Inhibitors of Mycobacterium tuberculosis UDP-galactopyranose mutase (UGM) enzyme Measured in Biochemical System Using Plate Reader - 2105-02_Inhibitor_Dose_CherryPick_Activity. [Related pubchem assays (depositor defined):AID504439]
[12] = target: T4, RNA-binding protein pos-1 (Caenorhabditis elegans, UniProt G5EF15); assay: inhibitors of POS-1/mex-3 RNA binding, dose response, biochemical, fluorescence polarization (AID 1964);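 also: purified POS-1 fused to maltose binding protein made in E. coli; potency of compounds blocking POS-1 binding to fluorescent RNA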
T4 sequence (G5EF15 whole entry): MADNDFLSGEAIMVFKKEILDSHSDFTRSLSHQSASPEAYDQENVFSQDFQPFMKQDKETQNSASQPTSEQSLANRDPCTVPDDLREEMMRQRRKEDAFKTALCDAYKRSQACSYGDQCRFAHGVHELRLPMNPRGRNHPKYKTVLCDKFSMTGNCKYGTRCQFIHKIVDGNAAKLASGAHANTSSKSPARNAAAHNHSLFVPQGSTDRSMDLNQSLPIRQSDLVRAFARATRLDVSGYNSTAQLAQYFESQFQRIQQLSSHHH

[13] = system: HEK293; assay: cells; assay type: functional, cell-based; conditions: Homo sapiens
[14] = target: T5, Nuclear receptor subfamily 0 group B member 1 (Homo sapiens, UniProt P51843); assay: Luminescence-based cell-based high throughput dose response assay for inhibitors of the orphan nuclear receptor subfamily 0, group B, member 1 (DAX1; NR0B1). [Related pubchem assays (depositor defined):AID504766, AID504790]; assay type: functional
T5 sequence (P51843 whole entry): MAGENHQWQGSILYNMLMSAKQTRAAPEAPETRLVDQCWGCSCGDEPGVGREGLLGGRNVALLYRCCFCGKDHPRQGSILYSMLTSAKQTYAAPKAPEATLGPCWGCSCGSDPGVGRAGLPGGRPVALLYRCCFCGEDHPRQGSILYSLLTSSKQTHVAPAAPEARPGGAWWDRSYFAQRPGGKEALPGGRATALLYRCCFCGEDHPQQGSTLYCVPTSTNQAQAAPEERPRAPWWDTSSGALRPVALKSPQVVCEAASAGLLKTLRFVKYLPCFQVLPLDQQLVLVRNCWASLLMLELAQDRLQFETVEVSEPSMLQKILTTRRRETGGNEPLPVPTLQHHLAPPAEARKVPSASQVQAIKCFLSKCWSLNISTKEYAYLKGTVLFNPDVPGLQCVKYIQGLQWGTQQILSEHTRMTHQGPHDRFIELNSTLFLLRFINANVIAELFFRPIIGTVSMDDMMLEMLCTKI

Sequence of Keap1/Nrf2 (Q16236 whole entry): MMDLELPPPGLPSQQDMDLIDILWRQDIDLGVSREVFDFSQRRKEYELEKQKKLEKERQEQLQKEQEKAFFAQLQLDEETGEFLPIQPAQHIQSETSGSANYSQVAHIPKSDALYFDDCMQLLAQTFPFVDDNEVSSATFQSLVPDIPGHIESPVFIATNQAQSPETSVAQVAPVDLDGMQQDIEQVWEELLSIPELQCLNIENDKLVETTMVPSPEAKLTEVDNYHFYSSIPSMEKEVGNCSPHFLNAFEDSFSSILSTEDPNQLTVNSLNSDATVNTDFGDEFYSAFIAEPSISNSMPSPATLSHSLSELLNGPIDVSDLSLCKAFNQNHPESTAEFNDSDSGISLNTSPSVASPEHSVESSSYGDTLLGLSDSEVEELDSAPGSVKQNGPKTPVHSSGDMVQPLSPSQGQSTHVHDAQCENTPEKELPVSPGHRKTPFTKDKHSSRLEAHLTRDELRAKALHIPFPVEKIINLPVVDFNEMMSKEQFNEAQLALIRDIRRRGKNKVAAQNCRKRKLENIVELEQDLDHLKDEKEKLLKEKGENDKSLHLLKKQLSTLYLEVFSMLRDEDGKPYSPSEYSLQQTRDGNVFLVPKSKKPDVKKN
Sequence of Keap1/Nrf2 (Q14145 whole entry): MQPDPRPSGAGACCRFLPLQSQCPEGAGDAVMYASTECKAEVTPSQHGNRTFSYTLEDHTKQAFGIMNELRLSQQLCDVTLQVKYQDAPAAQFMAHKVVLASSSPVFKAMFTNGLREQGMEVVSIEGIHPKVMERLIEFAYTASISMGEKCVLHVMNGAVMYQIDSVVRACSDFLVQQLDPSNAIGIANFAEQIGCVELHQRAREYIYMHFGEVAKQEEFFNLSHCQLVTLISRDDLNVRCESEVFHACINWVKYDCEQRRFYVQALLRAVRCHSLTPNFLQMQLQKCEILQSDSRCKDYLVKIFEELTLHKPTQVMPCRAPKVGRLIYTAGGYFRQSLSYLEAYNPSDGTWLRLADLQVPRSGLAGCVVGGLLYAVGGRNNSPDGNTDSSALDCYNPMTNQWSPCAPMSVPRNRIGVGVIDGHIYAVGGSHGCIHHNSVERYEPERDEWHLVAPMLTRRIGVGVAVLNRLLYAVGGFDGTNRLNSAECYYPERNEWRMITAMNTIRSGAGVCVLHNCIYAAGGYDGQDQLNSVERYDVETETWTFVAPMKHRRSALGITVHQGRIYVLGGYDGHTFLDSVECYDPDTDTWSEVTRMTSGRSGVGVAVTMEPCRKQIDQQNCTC
Sequence of UDP-galactopyranose mutase (P9WIQ1 whole entry, the tested form may be a part): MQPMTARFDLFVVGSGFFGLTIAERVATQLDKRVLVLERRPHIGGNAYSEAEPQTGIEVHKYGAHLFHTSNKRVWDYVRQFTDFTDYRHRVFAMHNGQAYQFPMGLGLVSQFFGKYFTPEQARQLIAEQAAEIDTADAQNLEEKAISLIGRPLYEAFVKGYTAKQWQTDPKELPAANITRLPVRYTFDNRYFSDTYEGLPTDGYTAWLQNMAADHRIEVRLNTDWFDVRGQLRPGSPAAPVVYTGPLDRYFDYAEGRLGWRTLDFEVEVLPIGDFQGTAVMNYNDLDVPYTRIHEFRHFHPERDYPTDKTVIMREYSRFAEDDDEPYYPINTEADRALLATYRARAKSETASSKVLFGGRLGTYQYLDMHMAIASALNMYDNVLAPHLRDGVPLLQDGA
Sequence of Beta-2 adrenergic receptor (P07550 whole entry): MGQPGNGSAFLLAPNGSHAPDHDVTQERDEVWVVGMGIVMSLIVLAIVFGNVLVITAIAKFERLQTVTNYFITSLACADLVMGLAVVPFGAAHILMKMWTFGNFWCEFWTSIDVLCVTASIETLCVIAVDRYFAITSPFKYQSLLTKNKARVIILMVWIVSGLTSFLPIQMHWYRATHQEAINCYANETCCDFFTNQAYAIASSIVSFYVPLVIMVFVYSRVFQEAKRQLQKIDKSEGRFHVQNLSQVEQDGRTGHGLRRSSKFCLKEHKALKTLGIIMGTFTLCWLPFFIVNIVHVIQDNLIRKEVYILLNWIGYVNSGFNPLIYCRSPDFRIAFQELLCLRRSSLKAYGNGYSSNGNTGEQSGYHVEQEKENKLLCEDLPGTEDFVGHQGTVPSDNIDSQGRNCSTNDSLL

Question: What does the source list for COc1cc(CNC2CCCC2)cc(OC)c1OC?
Answer: EC50 [1]: > 54.7 µM (inactive); EC50 [2]: > 54.7 µM (inactive); IC50 [3]: > 89.1 µM (inactive); EC50 [4]: > 54.7 µM (inactive)

Question: Which results are given for Cc1cc(Cl)c2oc(C(=O)N3CCN(c4ccncc4)CC3)c(C)c2c1?
Answer: EC50 [5]: 86.2 µM (inactive); EC50 [6]: 1.28 µM (active); EC50 [7]: 7.17 µM (active)

Question: What does the source list for COc1ccc(NC(=O)NS(=O)(=O)c2ccc(C)cc2)cn1?
Answer: AC50 [8]: 87.5 µM (active); AC50 [9]: > 52 µM (inactive); EC50 [1]: > 54.7 µM (inactive); EC50 [10]: 2.38 µM (inconclusive); AC50 [11]: 90.9 µM (active); EC50 [12]: 2.37 µM (inconclusive); EC50 [2]: > 54.7 µM (inactive); IC50 [3]: > 89.2 µM (inactive); EC50 [4]: > 55.9 µM (inactive)

Question: With COc1cc(C(=O)NC2CCN(C)CC2)ccc1Nc1ncc2c(n1)N(Cc1ccccc1)CCC(=O)N2C as the molecule, how does the IC50 [13] read?
Answer: Its IC50 is > 67.5 µM (inactive).

Question: What about the IC50 [14] of the same molecule?
Answer: Its IC50 is > 67.5 µM (inactive).
